Measurements published in ChEMBL document CHEMBL1131101, “2-, 5-, and 6-Halo-3-(2(S)-azetidinylmethoxy)pyridines: synthesis, affinity for nicotinic acetylcholine receptors, and molecular modeling” (J Med Chem, 1998).

Each compound was assayed against Neuronal acetylcholine receptor; alpha4/beta2 (Rattus norvegicus, UniProt P09483+P12390) (assay: Binding affinity for alpha4 beta-2 nAChR using [3H]epibatidine in rat brain).
Sequence of Neuronal acetylcholine receptor; alpha4/beta2 (P09483 whole entry): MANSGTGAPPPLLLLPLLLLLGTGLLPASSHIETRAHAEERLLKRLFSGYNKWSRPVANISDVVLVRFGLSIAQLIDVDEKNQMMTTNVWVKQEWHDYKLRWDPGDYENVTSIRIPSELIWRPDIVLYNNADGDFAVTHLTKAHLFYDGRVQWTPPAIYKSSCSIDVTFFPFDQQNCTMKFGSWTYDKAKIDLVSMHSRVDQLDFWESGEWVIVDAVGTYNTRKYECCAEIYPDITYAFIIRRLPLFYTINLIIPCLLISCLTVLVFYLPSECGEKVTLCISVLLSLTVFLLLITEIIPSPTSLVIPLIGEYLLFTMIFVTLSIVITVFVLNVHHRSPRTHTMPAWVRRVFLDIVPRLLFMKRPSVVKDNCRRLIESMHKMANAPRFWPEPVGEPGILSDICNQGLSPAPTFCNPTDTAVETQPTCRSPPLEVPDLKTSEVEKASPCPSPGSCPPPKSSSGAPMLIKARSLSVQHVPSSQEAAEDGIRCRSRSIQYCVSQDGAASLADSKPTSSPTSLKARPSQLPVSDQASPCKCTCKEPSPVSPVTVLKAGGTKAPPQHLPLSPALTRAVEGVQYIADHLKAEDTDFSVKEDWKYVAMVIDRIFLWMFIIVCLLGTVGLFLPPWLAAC
Sequence of Neuronal acetylcholine receptor; alpha4/beta2 (P12390 whole entry): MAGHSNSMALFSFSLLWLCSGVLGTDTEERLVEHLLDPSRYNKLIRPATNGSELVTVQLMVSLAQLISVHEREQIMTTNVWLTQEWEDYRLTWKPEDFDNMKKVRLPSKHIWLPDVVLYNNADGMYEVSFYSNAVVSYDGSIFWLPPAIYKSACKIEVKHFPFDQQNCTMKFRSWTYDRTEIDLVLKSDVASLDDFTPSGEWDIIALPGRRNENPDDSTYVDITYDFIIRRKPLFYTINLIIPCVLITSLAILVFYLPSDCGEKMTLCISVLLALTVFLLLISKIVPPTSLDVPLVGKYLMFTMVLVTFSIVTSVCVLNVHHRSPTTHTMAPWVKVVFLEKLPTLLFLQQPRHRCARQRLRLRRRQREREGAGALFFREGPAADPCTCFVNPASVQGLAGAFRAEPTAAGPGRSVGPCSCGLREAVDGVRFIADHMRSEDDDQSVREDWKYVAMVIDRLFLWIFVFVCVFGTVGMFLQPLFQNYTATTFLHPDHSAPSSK
Format: tissue-based
`Ic1ncccc1OC[C@@H]1CCN1` was tested, and the Ki was > 1 pM. For `Ic1ccc(OC[C@@H]2CCN2)cn1`, the Ki was 150 pM. For `Brc1ncccc1OC[C@@H]1CCN1`, the Ki was 240 pM. Compound `Fc1ccc(OC[C@@H]2CCN2)cn1` has a Ki of 25 pM. `c1cncc(OC[C@@H]2CCN2)c1` showed a Ki of 17 pM. `Clc1ncccc1OC[C@@H]1CCN1` gave a Ki of 8.4 pM. Compound `Clc1cncc(OC[C@@H]2CCN2)c1` has a Ki of 30 pM. `Fc1cncc(OC[C@@H]2CCN2)c1` showed a Ki of 25 pM. `Brc1cncc(OC[C@@H]2CCN2)c1` showed a Ki of 21 pM.
